Data published in a melting point compilation (Tetko et al.).

Row | melting point [°C] | Structure (SMILES)
1 | 130 to 132 | COc1cc2c(cc1OC)C(c1ccc(Cl)cc1)N(C(C)=O)CC2 (centres undefined)
2 | 254 | O=C(O)c1cccnc1Br
3 | 205 | O=C1OC2(Cc3ccccc31)C(=O)c1ccccc1C2=O
4 | 297 | Cn1ncc2c(NCCN)ncnc21
5 | 207 to 208 | Cc1nn(Cc2ccc(C(=O)O)o2)c(C)c1Br
6 | 35 to 44 | c1ccc(C2Cc3ccccc32)nc1 (centres undefined)
7 | 309 to 310 | O=C(O)c1cnc(O)nc1-c1ccncc1
8 | 130 to 131 | C#CCNC(N)=O
9 | 157 to 161 | O=C(O)[C@@H]1CCCC[C@H]1C(=O)c1ccc(Cl)cc1 (relative stereo)
10 | 23 | Oc1ccc(F)cc1Cl
11 | 44 | Oc1ccc(Cl)c(C(F)(F)F)c1
12 | 120 | CCc1cc(Cc2cc(CC)cc(C(C)(C)C)c2O)c(O)c(C(C)(C)C)c1
13 | 158 | CC12CCC(CC1)C2(C)C
14 | 105 | COc1cc([C@@H](O)[C@H](CO)Oc2c(OC)cccc2OC)cc(OC)c1OC
15 | 248 to 252 | CCOC(=O)c1c(Nc2ccc(OC)cc2)sc2c(-c3ccccc3)c3c(N)n[nH]c3nc12
16 | -31 | CC(=O)OCCOC(C)=O
17 | 33 to 36 | O=C(O)C(F)(F)C(F)(F)C(F)(F)C(F)(F)C(F)(F)C(F)(C(F)(F)F)C(F)(F)F
18 | 88 to 91 | CSC(SC)=C(C#N)S(=O)(=O)C(C)C
19 | 76 to 78 | CN(C(=S)Cl)c1ccc(Cl)cc1
20 | 307 to 309 | CCCOc1c2cccc1Cc1cc(Br)cc(c1O)Cc1cccc(c1OCCC)Cc1cc(Br)cc(c1O)C2
21 | -40 | Cc1ccc2c(c1)CCCC2
22 | 131 | Nc1cc(Br)cnc1Cl
23 | 149 | CC12CCC(C(O)C(C(c3ccccc3)C3C(=O)C4(C)CCC(C3O)C4(C)C)C1=O)C2(C)C (centres undefined)
24 | 335 to 337 | Oc1nnc(C2c3ccccc3Oc3ccccc32)o1

Row | melting point [°C] | Structure (SMILES)
25 | 57 to 59 | NC(=O)C(F)(F)C(F)F
26 | 65 to 68 | CC(=O)c1ccccc1NC=O
27 | 248 | O=c1c(O)c(-c2ccc(O)c(O)c2)oc2cc(OC3OC(CO)C(O)C(O)C3O)cc(O)c12 (centres undefined)
28 | 34 to 37 | CC(O)c1c(F)c(F)c(F)c(F)c1F (centres undefined)
29 | 209 | O=C(O)C#Cc1cccc(C#CC(=O)O)c1
30 | 194 | C=C1C(C)CCC2(C)C3=C(C(=O)C4(CC4C)C(O)C3=O)C(O)C(O)C12 (centres undefined)
31 | 42 | CCCCCCCCCCCCCCCCCCCCCC1CCCC1
32 | 166 | O=C(O)CC(CC(=O)O)c1ccc(Cl)cc1
33 | 119 to 121 | N#CCS(=O)(=O)Cc1cccc(C(F)(F)F)c1
34 | 138 | Oc1ccc2c(O)cccc2c1
35 | 140 | Cc1ccc(Nc2ccc([N+](=O)[O-])cc2[N+](=O)[O-])cc1
36 | -5 | CC(C)(C)SSC(C)(C)C
37 | 93 to 96 | O=[N+]([O-])c1ccc(Oc2ccc(Cl)cc2)nc1
38 | 104 | c1ccc(-c2ccc3ccccc3c2)cc1
39 | 78 to 80 | Cc1cc(CO)n[nH]1
40 | 88 to 89 | O=Cc1ccc(N2CCOCC2)nc1
41 | 220 | CNc1ccc(NC)c2c1C(=O)c1ccccc1C2=O
42 | 60 | Cc1ccc(C(=CCN2CCCC2)c2ccccn2)cc1
43 | 194 to 196 | Cc1nn(-c2ccccc2)c2oc3sccc3c(=S)c12
44 | 79 to 83 | Brc1ccc2c(c1)OCCOCCOCCOCCOCCO2
45 | 107 | COC(=O)c1ccc(O)c(Cl)c1
46 | 88.5 | CCOC(=O)Cc1cccc2ccccc12
47 | 71 to 74 | O=C1OC(C2CCCCC2)Cc2ccccc21 (centres undefined)
48 | 53 | O=[N+]([O-])c1cc(S(=O)(=O)Cl)sc1Cl

Row | melting point [°C] | Structure (SMILES)
49 | -88.4 | CC1(C)CCC(C)(C)C1
50 | 133 | O=[N+]([O-])c1ccc(N=Nc2ccccc2)cc1
51 | 32 | Cc1nc(Cl)ccc1I
52 | 143 | CC12C=CCC1C1CCC3CC(O)CCC3(C)C1CC2 (centres undefined)
53 | 192 | CC(=O)CCc1oc2c(I)cc(I)cc2c1-c1ccc(C)o1
54 | 15 | N[C@@H]1CCc2ccccc21
55 | -54 | CCCC(C)(C)C(C)(C)C
56 | 61 | C/C(Cl)=C/C(=O)O
57 | 58.3 to 59.9 | O=C(Cc1ccc(Oc2ccccc2)cc1)c1ccccc1
58 | 141 to 142 | O=C(/C=C/c1ccc(-c2ccc(Br)cc2)o1)c1ccccc1
59 | 60 to 62 | CCCCCCCCc1ccc(/N=N/c2ccc(OC(=O)CC)cc2)cc1
60 | 84 to 86 | O=C(Cl)c1cccc2ccsc12
61 | 83 | CC1(C)C2CCC1(C)C(O)C2CCO (centres undefined)
62 | 63 to 64 | Brc1cccc(Oc2ccccn2)c1
63 | 164 | CC(CCC(=O)O)C1CCC2C3CCC4CCCCC4(C)C3CCC12C (centres undefined)
64 | 235 | C=C1C(=O)C23C(OC(C)=O)CC4C5(C)CCCC4(C(=O)OC5)C2C(OC(C)=O)CC1C3OC(C)=O (centres undefined)
65 | 144 | CC(=O)Oc1cccc(N=Nc2cccc(OC(C)=O)c2)c1
66 | 162 to 165 | O=C(O)Cc1c[nH]c2ccc(O)cc12
67 | 213 to 215 | COc1ccc(C=Nc2ccc(C3=NNC(=O)CC3)cc2)cc1
68 | 169 | COc1ccc(Cl)cc1C(=O)NCCc1ccc(S(=O)(=O)NC(=O)NC2CCCCC2)cc1
69 | 158 to 161 | Nc1cc(-c2ccc(Cl)cc2)nc(N)n1
70 | 38 | O=C(Cl)C=Cc1ccccc1Cl

The next lines start with the compound.

Row | Structure (SMILES) | melting point [°C]
71 | CC(=O)OC1CCC2(C)C(CCC3C4=C(CCC32)C(C)(C#Cc2ccccc2)CC4)C1 (centres undefined) | 135 to 136
72 | CC(=O)Oc1cccc(I)c1 | 38
73 | COc1cc(OC)c(C)c(OC)c1 | 28
74 | CC(=O)OC(OC(C)=O)c1ccc2c(c1)C(=O)c1c(Cl)c(Cl)c(Cl)c(Cl)c1C2=O | 172
75 | OCCNC1CCCCC1 | 36
76 | CNC(=O)Oc1ccccc1OC(CCl)OC (centres undefined) | 80
77 | ClCc1ccc(Cl)nc1 | 40
78 | O=C(O)c1c[nH]c(=O)c(Cl)c1 | 284 to 286
79 | CCCC(O)(CCC)C1(C)CCC(C(=O)O)C(C)(C)O1 (centres undefined) | 111 to 112
80 | Clc1cc2c(oc3c(Cl)c(Cl)c(Cl)cc32)c(Cl)c1Cl | 240
81 | O=C=Nc1cccc2ccccc12 | 4
82 | CN(C)c1ccc(CNC(=O)c2cc([N+](=O)[O-])cc([N+](=O)[O-])c2)cc1 | 145
83 | C=C1C(=O)C23C(OC)CC4C5(C)CCCC4(COC5)C2C(OC(C)=O)CC1C3OC(C)=O (centres undefined) | 160
84 | NS(=O)(=O)c1ccc(SCCCO)c(F)c1 | 110
85 | Clc1ccc(-c2c(Cl)cc(Cl)c(Cl)c2Cl)cc1Cl | 107
86 | Cc1cc(C)n2nc(N)c(/N=N/c3cc(Cl)c(Cl)cc3Cl)c2n1 | 295
87 | CC1CCC2(NC1)OC1CC3C4CCC5CC(O)CCC5(C)C4CCC3(C)C1C2C (centres undefined) | 210
88 | C#CCO | -51.8
89 | O=C(NC(=O)c1c(F)cccc1F)Nc1ccc(CON=C(c2ccc(Cl)cc2)C2CC2)cc1 | 144
90 | C=C(C)CC1(CC)C(=O)NC(=S)NC1=O | 160
91 | O=S(=O)(N(c1ccc(Cl)cn1)S(=O)(=O)C(F)(F)F)C(F)(F)F | 46
92 | COP(=O)(OC)SCn1c(=O)oc2cc(Cl)cnc21 | 89
93 | Nc1cc(C(F)(F)F)cc(Cl)c1N | 42 to 43
94 | N#Cc1c(C(F)(F)F)cc(-c2cccnc2)[nH]c1=O | 280 to 281
95 | O=C(O)C(O)C(O)C(OC1OC(CO)C(O)C(O)C1O)C(O)CO (centres undefined) | 113 to 118
96 | CCOP(=S)(OCC)SC(CCl)N1C(=O)c2ccccc2C1=O (centres undefined) | 68
97 | CCCC(=O)N(CSP(=S)(OC)OC)c1ccccc1Cl | 42

Row | Structure (SMILES) | melting point [°C]
98 | Nc1c(Cl)c(Cl)nc(C(=O)O)c1Cl | 218
99 | COc1cc2c(cc1OC)C(c1ccc(F)cc1)N(C(C)=O)CC2 (centres undefined) | 162 to 164
100 | O=C(Cl)C12CC3CC(CC(C3)C1)C2 | 51
101 | CC(C)(Oc1ccccc1)C(=O)O | 98.5
102 | COC(=O)c1sccc1Oc1ccc(C(F)(F)F)cc1[N+](=O)[O-] | 112 to 113
103 | O=[N+]([O-])/C(=C/c1ccccc1[N+](=O)[O-])c1ccccc1 | 107
104 | CCSC(SCC)=C(C#N)c1ccccn1 | 160 to 162
105 | C=C(C)C(=O)Cl | -60
106 | O=C(O)c1cccc(-n2ccnc2)c1 | 194 to 199
107 | CC(=O)C1CC[C@]2(C)[C@H]3CC[C@]4(C)C(O)CC[C@H]4[C@@H]3CC[C@@]2(C)C1 (some centres undefined) | 152
108 | Nc1ccc(N)c2ccccc12 | 120
109 | Cc1cc(C)c(CC(=O)c2cc3cc(Br)ccc3o2)c(C)c1 | 123 to 124
110 | Cc1cc(NS(=O)(=O)c2ccc(N)cc2)nc(C)n1 | 243
111 | NCCCNCCCN | -14
112 | Cc1c(O)ccc(O)c1C | 224
113 | Nc1c(C(=O)Oc2ccccc2)sc2sc(C(=O)Oc3ccccc3)c(N)c12 | 165
114 | CC(=O)C1CCc2ccccc2C1=O (centres undefined) | 56
115 | O=[N+]([O-])c1ccc(Br)c(C(F)(F)F)c1 | 43
116 | Cc1cccc(C)c1NC(=O)C1C2C=CC(C2)C1C(=O)O (centres undefined) | 167
117 | COC(=O)c1cc(S(=O)(=O)Cl)oc1C | 35 to 38
118 | Nc1ccnc2ccccc12 | 155
119 | ClCc1nc(-c2ccc(OCc3ccc(Cl)cc3)cc2)no1 | 118
120 | CC1C2Cc3ccc(O)cc3C1(C)CCN2CC1CC1 (centres undefined) | 202
121 | CCCCCCCOC(=O)c1ccc(O)cc1 | 48
122 | O=c1[nH]c2ccccc2n1CCCCl | 115 to 125
123 | O=C(Cl)c1ccc(-c2nccs2)cc1 | 122 to 123
124 | CCC(C)Cl (centres undefined) | -140
